# Values joined by “and” are separate entries in the source; they are usually repeats but may differ in a detail not shown here. Identical values can stand only once. Like-named read-outs stand apart in the source and are kept apart here.
# Experiments:
# TPβ = biological target: T1, TPβ (Homo sapiens, UniProt P21731); test: U46619-induced [Ca2+]i mobilization in HEK.TPβ cells; type: cell-based; settings: HEK.TPβ cells; 1 μM U46619; Table 2; read-out: IC50 data for U46619-mediated [Ca2+]i mobilization, TPβ
# T1 construct: expressed in transfected cells
# Text: (§1) An appropriate functional test for the evaluation of the agonistic and/or antagonistic potency of the compounds of the invention is the determination of calcium flux. Both TPα and TPβ are coupled to the G-protein Gαq. Therefore, stimulation of these receptors ultimately leads to a release of intracellular calcium ([Ca^2+]i) from intracellular stores. Consequently, the determination of [Ca^2+]i flux represents an appropriate functional test for the evaluation of the agonistic/antagonistic potency of compounds of the invention. Calcium can be measured using a molecule characterized by the covalent combination of a Ca^2+ chelating group and a fluorophore group. The Ca^2+ binding properties of these indicators are formed by the presence of a tetracarboxylic acid core as found for example in EGTA (Ethylene Glycol bis(2-aminoethyl)Tetraacetic Acid). Binding of Ca^2+ produces a wavelength shift in either the excitation or emission fluorescence spectra or a change in the emission intensity. Whereas the Ca^2+ binding to EGTA is pH dependent, recent dyes are designed from an EGTA derivative, BAPTA (1,2-Bis(2-Aminophenoxy)ethane-N,N,N′,N′-Tetraacetic Acid). Loading of these dyes inside cells commonly uses esterified forms (acetoxymethyl ester), which are able to cross the cell membranes and are subsequently hydrolyzed by esterases inside the cell.
# (§2) Estimation of [Ca^2+]i flux is calculated from the fluorescence signal (F). For calibration, the maximal fluorescence (Fmax, Ca^2+-saturated form of the dye) as well as minimal fluorescence (Fmin, Ca^2+-free form of the dye) must be determined. These parameters are determined usually in situ after the experiment, for example by subsequent addition to the mixture of a cell-disrupting agent that releases all Ca^2+ such as Triton X100 and a potent Ca^2+-chelating agent such as EGTA. After subtraction of background fluorescence, [Ca^2+]; flux can be calculated for non-ratiometric indicators.
# (§3) Intracellular [Ca^2+]; fluxes were measured using a fluorescence plate reader following a modified protocol of Kassack et al., ‘Quantitative comparison of functional screening by measuring intracellular Ca^2+ with radioligand binding at recombinant human dopamine receptors’, AAPS Pharmsci, 2002, 4(4); 102-111, in cell lines (e.g. HEK293 or other cell type) endogenously-expressing or over-expressing either TPα, TPβ or any other receptor or protein to be screened.
# (§4) By way of example, HEK 293 cells which have been grown for 3-4 days in normal growth media (minimum essential media containing 10% FBS and 2 mmol/1 L-glutamine), under normal growth conditions (37° C., in humidified 5% CO2 atmosphere) are washed and harvested in KREBs-HEPES buffer (118 mM NaCl, 4.7 mM KCl, 1.2 mM MgSO4, 1.2 mM KH2PO4, 4.2 mM NaHCO3, 11.7 mM D-glucose, 1.3 mM CaCl2, 10 mM HEPES, pH 7.4). Cells are then incubated with 3 μM Fluo-4 in KREBs-HEPES buffer containing 1% Pluoronic F-127, for 1 hr at 25° C. with agitation. Then, cells are washed in KREBs-HEPES buffer containing 0.5% BSA and re-suspended at a final concentration of 3×10^5 cells/ml. Approx. 5.4×10^4 cells per well are plated in a 96-well plate and pre-incubated with test compounds for 10 m prior to measuring the fluorescence intensity at 520 nm for 25 seconds at 1 s intervals to monitor baseline using the Fluoroskan Ascent. Agonist (e.g., 1 μM U46619) is injected into separate wells by the automatic pipettor and fluorescence intensity is monitored at 520 nm for 75 seconds at 1 s intervals. Thereafter, Triton X100 and EGTA are added sequentially where Fmax refers to maximal fluorescence intensity measured after permeabilization of the cells with 2% Triton X100 and Fmin refers to fluorescence intensity measured after addition of 1 mM EGTA.
# (§5) The dye Fluo-4 has its excitation peak at 480 nm, in the visible spectra, which spare cells to be damaged by UV (340-360 nm) stimulation and reduces auto-fluorescence of cells. […]
# human platelets [1] = test: U46619-induced human platelet aggregation ex vivo (platelet rich plasma); type: cell-based; settings: human platelets ex vivo, Table 3, read-out: IC50 data for inhibition of U46619-induced platelet aggregation
# Text: A modification of the turbidimetric method originally developed by Born & Cross (Born, G. V. and Cross, M. J., The Aggregation of Blood Platelets, J Physiol, 1963, 168:178-95) is used. The principle is based on the diffraction of the light by particles. When a light beam passes through a suspension of particles, it is diffracted, depending on the number and the size of the particles in suspension.
# In the Born & Cross method, a light beam passes through a platelet suspension and the quantity of light is measured by a detector placed after the sample. Upon platelet aggregation, the size of platelet aggregates will increase while the total number of free platelets will decrease. Consequently, less light will be diffracted and the detector will record an increase in light intensity. The aggregometer has been developed based on these concepts. Variations in light transmission recorded by this device reflects the platelet physiology. When an agonist of platelet aggregation is added to a platelet suspension, platelets undergo activation and shape change. This step is characterized by an increase in platelet's apparent volume and thus a decrease of transmitted light. Subsequent platelet aggregation gradually forms aggregates of increasing size. Transmitted light slightly increases until a plateau is reached. The aggregation of platelet can be confirmed after the experiment by visual direct inspection of the test tube.
# Preparation of platelet suspension is achieved by blood centrifugation at 160 g for 10 minutes. The PRP is re-centrifuged at 160 g for 10 min to remove contaminating red and white blood cells. The supernatant which is collected contains the platelets rich plasma (PRP). The remaining blood is subsequently centrifuged at 900 g for 15 min in order to retrieve plasma (platelets poor plasma, PPP). PRP is diluted with PPP to reach a final concentration of 150×10^3 […] PRP is kept warmed at 37° C. in the aggregometer and the adequate dilution of drug to test is introduced in the sample. Platelet aggregation is induced after 10 minutes incubation. Light transmission (T) is measured throughout the experiment, which is ended 8 minutes after induction of aggregation. Maximal light transmission (Tmax) is determined in the sample without drugs. Minimal light transmission (Tmin) is measured in PRP without inducer.
# The effect of NTP4 and the previously identified lead TP antagonist, TP20, on U46619-mediated platelet aggregation in side-by-side comparisons was performed in platelet rich plasma (PRP) using the PAP-8E platelet aggregometer.
# FIG. 4A-4C show the effect of TP20 & NTP4 on U46619-mediated platelet aggregation. PRP was prepared from blood taken from healthy volunteers into syringes containing 3.8% sodium citrate and 10 μM indomethacin such that the final ratio of anticoagulant to blood was 1:9. Aliquots of PRP (300 μl) were pre-incubated for 10 min with the TP antagonists, TP20 and NTP4, where 2-fold serial dilutions from 1 μM were prepared for each, prior to stimulating platelets with 1 μM U46619, incubated at 37° C., with stirring. FIG. 4A and FIG. 4B: Representative dose-response platelet aggregation profiles for TP20 (FIG. 4A) and NTP4 (FIG. 4B), where data is presented as Percentage Aggregation, as determined by changes in light transmission using the PAP-8E Platelet Aggregation Profiler as a function of time. FIG. 4C: The dose-response curves for platelet aggregation are presented as the mean (±S.E.M.) maximum Percentage Aggregation as a function of the log of the TP antagonist concentration. Data presented is representative of ≧6 independent experiments.
# TPα = biological target: T2, TPα (Homo sapiens, UniProt P21731); test: U46619-induced [Ca2+]i mobilization in HEK.TPα cells; type: cell-based; settings: for IC50: HEK.TPα cells, 1 μM U46619, Table 2, read-out: IC50 data for U46619-mediated [Ca2+]i mobilization, TPα; for TPα:TPβ Selectivity Ratio: IC50 TPα/IC50 TPβ
# T2 construct: expressed in transfected cells
# T2 sequence (P21731 1-343): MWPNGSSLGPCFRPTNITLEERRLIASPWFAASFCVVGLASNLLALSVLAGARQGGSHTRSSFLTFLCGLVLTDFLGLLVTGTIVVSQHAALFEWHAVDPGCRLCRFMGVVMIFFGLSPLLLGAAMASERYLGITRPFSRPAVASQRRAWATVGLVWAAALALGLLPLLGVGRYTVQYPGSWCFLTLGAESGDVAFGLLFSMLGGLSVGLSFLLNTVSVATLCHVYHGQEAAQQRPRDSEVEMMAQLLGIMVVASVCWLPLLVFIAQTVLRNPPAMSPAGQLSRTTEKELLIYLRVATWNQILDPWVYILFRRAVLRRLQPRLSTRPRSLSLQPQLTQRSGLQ
# Text: as §1, §2, §3, §4, §5
# [2] = tested on: A/Puerto Rico/8/1934 (H1N1) influenza A virus; type: in vivo, BALB/c mice
# human platelets [3] = test: Thrombin-induced platelet aggregation of human platelets ex vivo; type: cell-based
# Text: (§6) The method of assessing platelet aggregation also allows evaluation of the effect of the compounds of the invention on platelet aggregation upon stimulation by other agonists, e.g., adenosine diphosphate (ADP) and thrombin.
# human platelets [4] = test: ADP-induced platelet aggregation of human platelets ex vivo; type: cell-based
# Text: as §6
# [5] = lung, Day 4, Tamiflu 10 mg/kg, TP20 0.36 mg/kg
# [6] = lung, Day 4, number of animals of 3
# T1 sequence (P21731 1-407 isoform P21731-2): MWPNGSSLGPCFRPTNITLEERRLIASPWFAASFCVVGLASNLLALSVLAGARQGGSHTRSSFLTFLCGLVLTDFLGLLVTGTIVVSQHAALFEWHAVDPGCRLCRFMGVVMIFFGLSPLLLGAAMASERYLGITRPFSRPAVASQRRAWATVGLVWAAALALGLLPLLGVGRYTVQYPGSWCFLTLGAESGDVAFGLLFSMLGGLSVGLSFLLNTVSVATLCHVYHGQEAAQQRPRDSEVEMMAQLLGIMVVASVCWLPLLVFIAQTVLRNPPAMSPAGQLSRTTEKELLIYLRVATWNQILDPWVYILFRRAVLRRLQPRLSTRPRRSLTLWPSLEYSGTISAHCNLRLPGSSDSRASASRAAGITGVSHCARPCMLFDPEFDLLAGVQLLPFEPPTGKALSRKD
molecule,measurement,setting,value
"COc1cccc(Oc2ccc([N+](=O)[O-])cc2S(=O)(=O)NC(=O)NC(C)(C)C)c1 [Compound 9h, reference compound]",IC50,TPβ,270 nM
same,IC50,"human platelets [1]; Homo sapiens, Platelet",513 nM
same,IC50,TPα,612 nM
same,TPα:TPβ Selectivity Ratio,TPα,2.3
"O=C(O)CCC/C=C\CC1C2CCC(O2)C1CNNC(=O)Nc1ccccc1 (stereo not shown) [SQ29,548, reference compound]",IC50,"human platelets [1]; Homo sapiens, Platelet",8.33 nM
CCOC(=O)C1=C[C@@H](OC(CC)CC)[C@H](NC(C)=O)[C@@H](N)C1 [Tamiflu],survival over the study,"[2]; Tamiflu 10 mg/kg, TP20 360 μg/kg, 14 days",survived the full duration
same,"Alveolar Acute Inflammation, number of animals with the finding","[2]; lung, Day 4, 3 animals",(1)
same,"Bronchiolar Erosion, number of animals with the finding","[2]; lung, Day 4, 3 animals",(3)
same,"Bronchiolar Exudate, number of animals with the finding","[2]; lung, Day 4, 3 animals",(3)
same,"Bronchiolar acute Inflammation, number of animals with the finding","[2]; lung, Day 4, 3 animals",(3)
same,"Vascular Necrosis, number of animals with the finding","[2]; lung, Day 4, 3 animals",(0)
same,"Extent of Perivascular Edema (Mean ± S.E.M.), Per Animal",[2]; [5],21.2 ± 1.71 (52) arbitrary units and 20.7 ± 1.21 (66) arbitrary units and 19.3 ± 1.24 (77) arbitrary units
same,"Extent of Perivascular Edema (Mean ± S.E.M.), Per Treatment Group",[2]; [5],20.6 ± 0.90 arbitrary units
same,reduction in the perivascular edema compared to vehicle,[2]; [5],does not reduce the extent of perivascular edema
same,"Alveolar Acute Inflammation, Minimal",[2]; [6],1
same,"Bronchiolar Erosion, Mild",[2]; [6],2
same,"Bronchiolar Erosion, Minimal",[2]; [6],0
same,"Bronchiolar Erosion, Moderate",[2]; [6],1
same,"Bronchiolar Exudate, Mild",[2]; [6],2
same,"Bronchiolar Exudate, Minimal",[2]; [6],1
same,"Bronchiolar Exudate, Moderate",[2]; [6],0
same,"Bronchiolar acute Inflammation, Mild",[2]; [6],3
same,"Bronchiolar acute Inflammation, Minimal",[2]; [6],0
same,"Perivascular Edema, Mild",[2]; [6],1
same,"Perivascular Edema, Minimal",[2]; [6],1
same,"Day of Minimum Body Weight Recorded, Mean (Mean Day to Recovery)","[2]; mouse, in vivo",8.4
same,"Day of Minimum Body Weight Recorded, per animal","[2]; mouse, in vivo",9 (7×) and 7 (3×)
same,"Perivascular Edema, number of animals with the finding","[2]; mouse, in vivo",(2)
same,Weight @ Day 0,[2]; n = 10/group,17.56 ± 0.18
same,Weight @ Day 14,[2]; n = 10/group,17.4 ± 0.32
CC(C)(C)NC(=O)NS(=O)(=O)c1cc([N+](=O)[O-])ccc1Oc1cccc(-c2ccc(C(F)(F)F)cc2)c1 [XII],IC50,TPβ,86 nM
same,effect on thrombin-induced platelet aggregation,human platelets [3],did not affect
same,IC50,"human platelets [1]; Homo sapiens, Platelet",129 nM
same,IC50,TPα,89.8 nM
same,TPα:TPβ Selectivity Ratio,TPα,1
same,effect on ADP-induced platelet aggregation,human platelets [4],did not affect
Cc1ccc(-c2cccc(Oc3ccc([N+](=O)[O-])cc3S(=O)(=O)NC(=O)NC(C)(C)C)c2)cc1 [XLI],IC50,TPβ,16.5 nM
same,effect on thrombin-induced platelet aggregation,human platelets [3],did not affect
same,IC50,"human platelets [1]; Homo sapiens, Platelet",230 nM
same,IC50,TPα,106 nM
same,TPα:TPβ Selectivity Ratio,TPα,6.4
same,effect on ADP-induced platelet aggregation,human platelets [4],did not affect
COC(=O)c1ccc(-c2cccc(Oc3ccc([N+](=O)[O-])cc3S(=O)(=O)NC(=O)NC(C)(C)C)c2)cc1 [XLVI],IC50,TPβ,36.5 nM
same,effect on thrombin-induced platelet aggregation,human platelets [3],did not affect
same,IC50,"human platelets [1]; Homo sapiens, Platelet",4.12 nM
same,IC50,TPα,114 nM
same,TPα:TPβ Selectivity Ratio,TPα,3
same,effect on ADP-induced platelet aggregation,human platelets [4],did not affect
CC(=O)c1ccc(-c2cccc(Oc3ccc([N+](=O)[O-])cc3S(=O)(=O)NC(=O)NC(C)(C)C)c2)cc1 [XLV],IC50,TPβ,33.7 nM
same,effect on thrombin-induced platelet aggregation,human platelets [3],did not affect
same,IC50,"human platelets [1]; Homo sapiens, Platelet",159 nM
same,IC50,TPα,186 nM
same,TPα:TPβ Selectivity Ratio,TPα,5.5
same,effect on ADP-induced platelet aggregation,human platelets [4],did not affect
"N-(tert-butylcarbamoyl)-2-(3-methoxyphenoxy)-5-nitrobenzenesulfonamide [Compound 9ag, reference compound]",IC50,TPβ,379 nM
same,IC50,human platelets [1],985 nM
same,IC50,TPα,1750 nM
same,TPα:TPβ Selectivity Ratio,TPα,4.5

# Source: patent publication US9718781B2, “Methods and compounds for treating proliferative disorders and viral infections” (University College Dublin, National University of Ireland, …, priority 2012, dated 2017)
